Where “and” joins values, the source holds several entries; their conditions need not be identical. Identical values can stand only once. Toxic doses and inconclusive results are not listed.

The assay relates to P388 leukemia ip, CD2F1 mice, survival T/C. Briefly: NCI In Vivo Anticancer Drug Screen. Data for tumor model P388 Leukemia (intraperitoneal) in CD2F1 (CDF1) mice. Particulars: endpoint: median survival time, higher = longer survival. The method in brief:
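Mice carrying the transplanted tumor received test compound or vehicle. Survival was recorded in each group, and the value is the treated-group measurement divided by that of the vehicle-treated control group.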

Where [1] appears, read: dose: 50.0 mg/kg/injection, schedule: Q01DX005 (ip), vehicle: saline with Tween-80.
[2] abbreviates: dose: 100.0 mg/kg/injection, schedule: Q01DX005 (ip), vehicle: saline with Tween-80.
Where [3] appears, read: dose: 60.0 mg/kg/injection, schedule: Q01DX005 (ip), vehicle: saline with Tween-80.
Where [4] appears, read: dose: 120.0 mg/kg/injection, schedule: Q01DX005 (ip), vehicle: saline with Tween-80.
[5] abbreviates: dose: 240.0 mg/kg/injection, schedule: Q01DX005 (ip), vehicle: saline with Tween-80.
Where [6] appears, read: dose: 50.0 mg/kg/injection, schedule: Q01DX005 (ip), vehicle: saline.
[7] abbreviates: dose: 50.0 mg/kg/injection, schedule: Q01DX005 (ip), vehicle: Klucel (hydroxypropylcellulose) (HPC).
[8] abbreviates: dose: 100.0 mg/kg/injection, schedule: Q01DX005 (ip), vehicle: Klucel (hydroxypropylcellulose) (HPC).
Where [9] appears, read: dose: 200.0 mg/kg/injection, schedule: Q01DX005 (ip), vehicle: Klucel (hydroxypropylcellulose) (HPC).

For the compound `CCOC(=O)C1CC1c1c(C)c2cc3[nH]c(cc4nc(cc5nc(cc1[nH]2)C(C)=C5CCC(=O)OC)C(CCC(=O)OC)=C4C)c(C)c3C1CC1C(=O)OCC` (configuration not stated), the T/C is, setting by setting: under setting [1], 93 % of control; under setting [2], 86 % of control.
As to `CCO/C(C)=N\c1nc(C)[nH]c1C(N)=O`, the T/C (dose: 6.25 mg/kg/injection, schedule: Q01DX009 (ip), vehicle: saline with Tween-80) is 120 % of control; the T/C (dose: 12.5 mg/kg/injection, schedule: Q01DX009 (ip), vehicle: saline with Tween-80) is 106 % of control; the T/C (dose: 25.0 mg/kg/injection, schedule: Q01DX009 (ip), vehicle: saline with Tween-80) is 87 % of control; the T/C (dose: 200.0 mg/kg/injection, schedule: Q01DX009 (ip), vehicle: saline) is 86 % of control.
`CC(NC(=O)C(Cc1ccc(OC(=O)OCc2ccccc2)cc1)NC(=O)OCc1ccccc1)C(=O)OCc1ccccc1` (configuration not stated): the T/C under setting [1] was 96 % of control and the T/C under setting [2] was 92 % of control.
Take `O=C1/C(=C/c2cccc(O)c2)COc2ccccc21`: the T/C by setting is: under setting [3], 95 % of control; under setting [4], 94 % of control; under setting [5], 87 % of control.
Regarding `CC1CC(C)(C)C(c2ccccc2)C(=O)O1` (configuration not stated), the T/C is, setting by setting: (dose: 100.0 mg/kg/injection, schedule: Q04DX003 (ip), vehicle: Klucel (hydroxypropylcellulose) (HPC)) 106 % of control; (dose: 200.0 mg/kg/injection, schedule: Q04DX003 (ip), vehicle: Klucel (hydroxypropylcellulose) (HPC)) 100 % of control; (dose: 400.0 mg/kg/injection, schedule: Q04DX003 (ip), vehicle: Klucel (hydroxypropylcellulose) (HPC)) 114 % of control.
Turning to `CCCCCCCCCCCCNC(=O)[C@@]1(O)[C@H](O)C2(CC)C=CCN3CCC4(c5cc([C@@]6(C(=O)OC)CC7CN(CCc8c6[nH]c6ccccc86)C[C@](O)(CC)C7)c(OC)cc5N(C)[C@H]41)C32` (some centres not stated), the T/C is, setting by setting: (dose: 18.0 mg/kg/injection, schedule: Q01DX005 (ip), vehicle: other) 157 % of control; (dose: 30.0 mg/kg/injection, schedule: Q01DX005 (ip), vehicle: other) 182 % of control; (dose: 30.0 mg/kg/injection, schedule: Q01DX005 (ip), vehicle: saline) 160 % of control; (dose: 50.0 mg/kg/injection, schedule: Q01DX005 (ip), vehicle: other) 230 % of control; under setting [6], 177 % of control.
As to `Cc1cccc(-c2cc3ccccc3c(Cl)n2)n1`, the T/C is, setting by setting: (dose: 100.0 mg/kg/injection, schedule: Q01DX001 (ip), vehicle: saline with Tween-80) 104 % of control; (dose: 200.0 mg/kg/injection, schedule: Q01DX001 (ip), vehicle: saline with Tween-80) 100 % of control; (dose: 400.0 mg/kg/injection, schedule: Q01DX001 (ip), vehicle: saline with Tween-80) 91 % of control.
Regarding `CCn1c(=O)c2cn[nH]c2n(CC)c1=O`, the T/C (dose: 50.0 mg/kg/injection, schedule: Q01DX009 (ip), vehicle: Klucel (hydroxypropylcellulose) (HPC)) is 108 % of control and the T/C (dose: 100.0 mg/kg/injection, schedule: Q01DX009 (ip), vehicle: Klucel (hydroxypropylcellulose) (HPC)) is 104 % of control.
With `C=CC(=O)OC1CC(O)C2(C)CC3C(=C)C(=O)OC3CC(C)C12` (configuration not stated), the T/C is, setting by setting: (dose: 100.0 mg/kg/injection, schedule: Q04DX002 (ip), vehicle: saline with Tween-80) 107 % of control; (dose: 200.0 mg/kg/injection, schedule: Q04DX002 (ip), vehicle: saline with Tween-80) 110 % of control; (dose: 400.0 mg/kg/injection, schedule: Q04DX002 (ip), vehicle: saline with Tween-80) 109 % of control.
In the case of `CCOC(=O)CCC1(C)Sc2ccccc2N1C` (configuration not stated), the T/C runs as follows: under setting [3], 107 % of control; under setting [4], 110 % of control; under setting [5], 107 % of control.
Turning to `O=Nc1c2n[nH]c1CCCCCCCCC2`, the T/C is 101 % of control under setting [7], 101 % of control under setting [8] and 98 % of control under setting [9].
On to `COc1ccc(C(=O)CC(C(=O)O)c2ccc(OC)cc2)cc1` (configuration not stated), for which the T/C is, setting by setting: (dose: 100.0 mg/kg/injection, schedule: Q04DX003 (ip), vehicle: saline with Tween-80) 102 % of control; (dose: 200.0 mg/kg/injection, schedule: Q04DX003 (ip), vehicle: saline with Tween-80) 94 % of control; (dose: 400.0 mg/kg/injection, schedule: Q04DX003 (ip), vehicle: saline with Tween-80) 99 % of control.
As to `O=c1nc2oc(-c3ccccc3)cn2c(=O)n1-c1ncc(-c2ccccc2)o1`, the T/C under setting [7] was 97 % of control, the T/C under setting [8] was 100 % of control and the T/C under setting [9] is 105 % of control.
Regarding `Nc1ccc(O)c(=O)cc1`, the T/C is 96 % of control under setting [7], 95 % of control under setting [8] and 92 % of control under setting [9].
Consider `COc1cc(-c2ccc(N=Nc3c(O)ccc4ccccc34)c(OC)c2)ccc1N=Nc1ccc2c(S(=O)(=O)O)cc(S(=O)(=O)O)c(N)c2c1O`, for which the T/C (dose: 66.0 mg/kg/injection, schedule: Q01DX009 (ip), vehicle: saline) was 102 % of control; the T/C (dose: 100.0 mg/kg/injection, schedule: Q01DX009 (ip), vehicle: saline) was 118 % of control; the T/C (dose: 150.0 mg/kg/injection, schedule: Q01DX009 (ip), vehicle: saline) was 114 % of control.
With `CC(=O)NC1=C(N2CC2C)C(=O)C(NC(C)=O)=C(N2CC2C)C1=O` (configuration not stated), the T/C (dose: 1.78 mg/kg/injection, schedule: Q01DX009 (ip), vehicle: saline) is 122 % of control; the T/C (dose: 2.66 mg/kg/injection, schedule: Q01DX009 (ip), vehicle: saline) is 160 % of control; the T/C (dose: 4.0 mg/kg/injection, schedule: Q01DX009 (ip), vehicle: saline) was 163 % of control; the T/C (dose: 6.0 mg/kg/injection, schedule: Q01DX009 (ip), vehicle: saline) is 210 % of control.
Regarding `COc1ccc2c(c1)CCC1=C2CCC2(C)C1=CCS2(=O)=O` (configuration not stated), the T/C (dose: 60.0 mg/kg/injection, schedule: Q01DX005 (ip), vehicle: Klucel (hydroxypropylcellulose) (HPC)) was 105 % of control; the T/C (dose: 120.0 mg/kg/injection, schedule: Q01DX005 (ip), vehicle: Klucel (hydroxypropylcellulose) (HPC)) is 90 % of control; the T/C (dose: 240.0 mg/kg/injection, schedule: Q01DX005 (ip), vehicle: Klucel (hydroxypropylcellulose) (HPC)) is 97 % of control.
For `CC12CC(OC(=O)[C@]1(C)O)[C@@H]([C@]1(O)CC[C@H]3[C@@H]4C[C@H]5O[C@]56[C@@H](O)C=CC(=O)[C@]6(C)[C@H]4CC[C@@]31C)C2` (some centres not stated), the T/C (dose: 2.0 mg/kg/injection, schedule: Q01DX009 (ip), vehicle: saline + alcohol) is 100 % of control; the T/C (dose: 4.0 mg/kg/injection, schedule: Q01DX005 (ip), vehicle: saline + alcohol) is 108 % of control and 120 % of control; the T/C (dose: 4.0 mg/kg/injection, schedule: Q01DX009 (ip), vehicle: saline + alcohol) is 105 % of control; the T/C (dose: 8.0 mg/kg/injection, schedule: Q01DX005 (ip), vehicle: saline + alcohol) is 110 % of control and 111 % of control; the T/C (dose: 8.0 mg/kg/injection, schedule: Q01DX009 (ip), vehicle: saline + alcohol) is 96 % of control; the T/C (dose: 16.0 mg/kg/injection, schedule: Q01DX005 (ip), vehicle: saline + alcohol) was 109 % of control and 111 % of control. Further, the T/C is, setting by setting: (dose: 16.0 mg/kg/injection, schedule: Q01DX009 (ip), vehicle: saline + alcohol) 96 % of control; (dose: 32.0 mg/kg/injection, schedule: Q01DX005 (ip), vehicle: saline + alcohol) 107 % of control; (dose: 32.0 mg/kg/injection, schedule: Q01DX009 (ip), vehicle: saline + alcohol) 87 % of control.
Take `O=C(/C=C/c1c[nH]c2ccccc12)c1ccccc1O`: the T/C reads like this: under setting [3], 98 % of control; under setting [4], 90 % of control; under setting [5], 98 % of control.
Regarding `O=C(CN1CCNCC1)N1CCOCC1`, the T/C is 100 % of control under setting [6]; 102 % of control (dose: 100.0 mg/kg/injection, schedule: Q01DX005 (ip), vehicle: saline); 97 % of control (dose: 200.0 mg/kg/injection, schedule: Q01DX005 (ip), vehicle: saline).
`CCN(CC)CCNc1ccc(CO)c2oc3ccc(O)cc3c(=O)c12`: the T/C is, setting by setting: under setting [1], 171 % of control and 189 % of control; under setting [2], 214 % of control and 217 % of control.
`CCCc1nc(N)[nH]c(=O)c1I`: the T/C was 88 % of control under setting [7], 95 % of control under setting [8] and 106 % of control under setting [9].

Source of the values: PubChem BioAssay AID330 (DTP/NCI, 2004).
